Results on four compounds are retold here after patent US20220135580A1, “HYDROXYPH[…], METHODS AND USES THEREOF” (priority 2019, published 2022).

Entries after “also recorded” stand apart in the source; their conditions may differ.

In series [1] the test system is neutral lipids in zebrafish larvae. Briefly: zebrafish Nile red fat metabolism assay (lipid reducing activity). Type of series: in vivo, Zebrafish (Danio rerio). To be noted: for fluorescence intensity of Nile red: all tested concentrations (156 ng/mL to 10 μg/mL); for lipid reducing activity / Nile red staining / IC50: zebrafish larvae, exposure for 48 h; for IC50: Nile red. As to the method:
FIG. 1.A: Representative images of the zebrafish Nile red fat metabolism assay. Nile red fluorescence signal indicates neutral lipids around the yolk sac and stomach/intestine. […] A solvent control (0.1% dimethyl sulfoxide, DMSO) and positive control group (50 μM resveratrol, REV) was included.
FIG. 1.B: Quantification of lipid-reducing activity in the zebrafish Nile Red fat metabolism assay after exposure for 48 h. Values are expressed as mean fluorescence intensity (MFI) relative to the DMSO group and are derived from 6 to 8 individual larvae per treatment group. The data are represented as box-whisker plots (5 to 95 percentiles). Asterisks highlight significant differences compared to the DMSO group (****p<0.0001; ***p<0.001; **p<0.01; *p<0.05).
Zebrafish (Danio rerio) has become an attractive model organism for biomedical research. In the study of complex metabolic disorders like obesity, the use of more complex in vivo model systems as small whole animal models can bring significant advantages. For drug discovery, zebrafish assays can be used complementary to rodent assays, with easier handling, high predictive validity and cost-efficiency while compatible with high-throughput screening. […] The zebrafish Nile red fat metabolism assay analyses the capacity of compounds to reduce neutral lipids in zebrafish larvae in vivo.
(§1) 13^2(S)-hydroxy-pheophytin a (hpa) is a known compound, and belongs to the photosystem II complex of the chloroplast. The second is a novel compound, 13^2(S)-hydroxy-pheofarnesin a (hfa), which is structurally related to hpa.
In an embodiment, chlorophyll a and chlorophyll b were tested for lipid reducing activity on the zebrafish Nile red fat metabolism assay.

Series [2] has as its system zebrafish larvae. Nature of the series: general toxicity on zebrafish larvae (death, malformations). Type of series: in vivo, Zebrafish (Danio rerio). Conditions: same concentration ranges as lipid reducing activity.
Description: as §1

Series [3] deals with differentiated 3T3-L1 spheroids. Briefly: viability (calcein AM) in differentiated 3T3-L1 spheroids. To be noted: for reduction of viability of spheroids: not significant; for toxicity by calcein AM staining: 3T3L1 spheroids. Type of series: cell-based, murine. As for the experimental part: (§2) FIG. 2: Evaluation of lipid content (Nile red) and viability (calcein AM) in differentiated 3T3-L1 spheroids after exposure to compound 1 (hpa) and compound 2 (hfa) over 48 h. […] Statistical difference to the solvent control were analysed by One-Way ANOVA, followed by a Dunnett's multiple comparison post-test (***p-value<0.001, **p-value <0.01, *p-value <0.05). Quantification of free glycerol (lipolysis) on the medium where 3T3-L1 organoids were exposed to compound 1 (hpa) and compound 2 (hfa) over 48 h. […] Kolmogorov-Smirnov test was used to test normality of the data, followed by a Dunnett's multiple comparison post-test (***p-value <0.001, **p-value <0.01, *p-value <0.05).
(§3) In an embodiment, the bioactivity of hpa and hfa was confirmed in a further assay, using the murine pre-adipocyte cell line 3T3L1. […] In an embodiment, the activity in differentiated 3T3L1 spheroids was confirmed and analysis of lipolysis performed.

For series [4] the test system is unchanged. Briefly: lipid content (Nile red) in differentiated 3T3-L1 spheroids. To be noted: for lipid accumulation: 48 h exposure, spheroids after 7 d differentiation; for lipid content of the spheroids: 3T3L1 cells grown and differentiated as spheroids. Type of series: cell-based, murine. As to the method: as §2, §3
For series [5] the test system is unchanged. Nature of the series: lipolysis: free glycerol in the medium of 3T3-L1 spheroids. Type of series: cell-based, murine. To be noted: 3T3-L1 spheroids exposed over 48 h. As to the method:
as §2, §3

Series [6] deals with cancer cells. Conditions: Cheng et al., 2001; cited from earlier work.

`C=Cc1c(C)c2cc3nc(c4c5[n-]c(cc6nc(cc1[n-]2)C(C)=C6CC)c(C)c5C(=O)[C@@H]4C(=O)OC)[C@@H](CCC(=O)OC/C=C(\C)CCC[C@H](C)CCC[C@H](C)CCCC(C)C)[C@@H]3C.[Mg+2]` [chlorophyll a]: in series [1], the “fluorescence intensity of Nile red” value is recorded as “did not reduce the fluorescence intensity” and the “lipid reducing activity / Nile red staining” value was “not present; also recorded: did not demonstrate any lipid reducing activity”.
Consider 13^2-(S)-hydroxy-pheophytin a [hpa], for which the “general toxicity (death, malformations)” value in series [2] is on record as “No general toxicity was observed”. Besides, the “reduction of viability of spheroids” value in series [3] (15 μg/mL, 48 h) is listed as 20%; in series [3] (30 μg/mL, 48 h), 20%. For the same compound, in series [3], the “toxicity by calcein AM staining” value was “No toxicity was observed”. In addition, the lipid accumulation result in series [4] (7.5 μg/mL), in series [4] (15 μg/mL) and in series [4] (30 μg/mL) was “significant reduction of lipid accumulation” each time. Further, the “lipid content of the spheroids” value in series [4] is listed as “reduced significantly the lipid content”. The IC50 (usually the midpoint of a concentration-inhibition curve) in series [1] turned out to be 8.9 ± 0.4 µM. For the same compound, in series [1], the “lipid reducing activity / Nile red staining” value is reported as “show a decrease in the Nile red staining”. Further, the “lipolytic activity / free glycerol content in the medium” value in series [5] was “did not alter lipolytic activities”; in series [5] (listed as compound 1), “No significant alterations”. For the same compound, in series [6], the “cytotoxicity on cancer cells” value is 8.8 to 22 µg/mL.
With 13^2-(S)-hydroxy-pheofarnesin a [hfa], the “general toxicity (death, malformations)” value in series [2] is recorded as “No general toxicity was observed”. The “toxicity by calcein AM staining” value in series [3] is listed as “No toxicity was observed”. Besides, the “reduction in viability of spheroids” value in series [3] (any concentration, 48 h) was “did not cause any reduction in viability”. Besides, the lipid accumulation entry in series [4] (30 μg/mL) was “significant reduction of lipid accumulation”. In addition, the “lipid content of the spheroids” value in series [4] was “reduced significantly the lipid content”. In addition, in series [1], the IC50 is 15.5 ± 1.3 µM and the “lipid reducing activity / Nile red staining” value is “show a decrease in the Nile red staining”. The “lipolytic activity / free glycerol content in the medium” value in series [5] is given as “did not alter lipolytic activities”. Moreover, the “lipolytic activity / free glycerol content in the medium” value in series [5] (listed as compound 2) is “No significant alterations”.
On to `C=Cc1c(C)c2cc3nc(c4c5[n-]c(cc6nc(cc1[n-]2)C(C=O)=C6CC)c(C)c5C(=O)[C@@H]4C(=O)OC)[C@@H](CCC(=O)OC/C=C(\C)CCC[C@H](C)CCC[C@H](C)CCCC(C)C)[C@@H]3C.[Mg+2]` [chlorophyll b], for which, in series [1], the “fluorescence intensity of Nile red” value is given as “did not reduce the fluorescence intensity” and the “lipid reducing activity / Nile red staining” value was “not present; also recorded: did not demonstrate any lipid reducing activity”.
